Read-outs that look alike come from different tables or passages of the source. Blank lines part the entries; values can stand above or below the molecule they belong to.
Experiments:
[1] = Blood (serum) level of benzarone, comparison of areas beneath the blood level curves; format: in vivo, rat; conditions: 1000 mg/kg oral, rats, solution in Rilanit GMO compared with aqueous suspension, up to 15 hours
Protocol: For determining the blood level values, a dose of 1000 mg/kg of benzarone in form of a solution in Rilanit GMO^4) and in form of a suspension in water are administered to rats by means of an oral feeding tube.
Subsequently every two hours including the 10th hour, 8 animals of each group, and after 15 hours, 4 more animals of each group are sacrificed and their blood is recovered by means of a cordial cut. The amount of benzarone in the serum is determined spectrophotometrically. The measured blood level values are plotted on a graph and the areas beneath the resulting blood level curves are compared.

[2] = Renal excretion of benzarone, comparison of areas beneath the curves; format: in vivo, rat; conditions: 1000 mg/kg oral, rats, solution in Rilanit GMO compared with aqueous suspension, 15 hours
Protocol: Furthermore doses of 1000 mg/kg of benzarone in the form of a solution in Rilanit GMO^4) and in form of a suspension in water are orally administered to rats by means of an oral feeding tube. The urine of the animals is collected every 2 hours over a period of 15 hours and the amount of the excreted benzarone therein is determined spectrophotometrically. The measured values are plotted on a graph and the areas beneath the resulting curves are compared.

[3] = Oral toxicity (LD50) of solutions in partial glycerides versus suspension in aqueous tylose; conditions: guinea pig, in vivo, female guinea pigs
Protocol: For testing the toxicity, solutions of g-strophanthin, proscillaridin A or medrogestone in various mixtures of mono-and diglycerides of long chain fatty acids and comparative formulations of the same pharmacologically active agents suspended in a tylose solution in water are administered orally to female guinea pigs of 250 to 300 g body weight by means of an oral feeding tube.

[4] = Renal excretion of carbon-14 labelled progesterone, cumulative urinary 14C; format: in vivo, guinea pig; conditions: 20 mg/kg oral; for Cumulative Renal Excretion of Progesterone: guinea pigs
Protocol: For determining the renal excretion, a dose of 20 mg/kg of carbon-14 labelled progesterone in the form of solutions in various mixtures of partial glycerides of long chain fatty acids and a comparative formulation wherein the progesterone is suspended in an aqueous tylose solution are administered orally to female guinea pigs having an average body weight of about 300 g. The urine of the animals is collected every 24 hours and the ^14 C-content in equal amounts of the urine is determined. The cumulated amount of excreted material is shown in Table II below in % of the administered dose. The percentage of excreted material is about 83% for the solution of progesterone in Peceol.

[5] = solution in Peceol (mono, di, and triglycerides of oleic acid), read-out: LD50 in Peceol
[6] = solution in Witafrol 7470 (mono- and diglycerides of oleic acid), read-out: LD50 in Witafrol 7470
[7] = suspended in tylose (methylcellulose) solution in water, read-out: LD50 in Tylose

- increase of the concentration of benzarone in the serum (comparison of areas beneath blood level curves) [1]: 257%
- increase of the renal excretion of benzarone (comparison of areas beneath the curves) [2]: 437%
Structure (SMILES): CCc1oc2ccccc2c1C(=O)c1ccc(O)cc1 [benzarone, 2-ethyl-3-(4-hydroxybenzoyl)benzofuran]

Structure (SMILES): CC1OC(OC2CC(O)C3(CO)C4C(O)CC5(C)C(C6=CC(=O)OC6)CCC5(O)C4CCC3(O)C2)C(O)C(O)C1O (stereo not shown) [g-strophanthin]
- LD50 [3, 5]: 8.38 mg/kg
- LD50 [3, 6]: 8.28 mg/kg
- LD50 [3, 7]: 34.8 mg/kg

Structure (SMILES): CC(=O)[C@@]1(C)CC[C@H]2[C@@H]3C=C(C)C4=CC(=O)CC[C@]4(C)[C@H]3CC[C@@]21C [medrogestone]
- LD50 [3, 5]: 850 mg/kg
- LD50 ([3]; solution in Rilanit GMO (mono- and diglycerides of oleic acid), read-out: LD50 in Rilanit GMO): 862 mg/kg
- LD50 [3, 7]: 1470 mg/kg

Structure (SMILES): CC(=O)[C@H]1CC[C@H]2[C@@H]3CCC4=CC(=O)CC[C@]4(C)[C@H]3CC[C@]12C [progesterone]
- percentage of excreted material ([4]; female guinea pigs, 14C-progesterone, solution in Peceol, % of the administered dose): about 83%
- amount of excreted material relative to the suspension in the tylose solution ([4]; female guinea pigs, solution in Peceol versus tylose suspension): about twice as high
- Cumulative Renal Excretion of Progesterone ([4]; Peceol X1, 1. day): 46.0 % of the Administered Dose
- Cumulative Renal Excretion of Progesterone ([4]; Peceol X1, 2. day): 64.6 % of the Administered Dose
- Cumulative Renal Excretion of Progesterone ([4]; Peceol X1, 3. day): 71.6 % of the Administered Dose
- Cumulative Renal Excretion of Progesterone ([4]; Peceol X1, 4. day): 76.1 % of the Administered Dose
- Cumulative Renal Excretion of Progesterone ([4]; Peceol X1, 5. day): 79.1 % of the Administered Dose
- Cumulative Renal Excretion of Progesterone ([4]; Peceol X1, 6. day): 81.1 % of the Administered Dose
- Cumulative Renal Excretion of Progesterone ([4]; Peceol X1, 7. day): 82.9 % of the Administered Dose
- Cumulative Renal Excretion of Progesterone ([4]; Softigen 701, 1. day): 51.6 % of the Administered Dose
- Cumulative Renal Excretion of Progesterone ([4]; Softigen 701, 2. day): 63.2 % of the Administered Dose
- Cumulative Renal Excretion of Progesterone ([4]; Softigen 701, 3. day): 66.2 % of the Administered Dose
- Cumulative Renal Excretion of Progesterone ([4]; Softigen 701, 4. day): 66.9 % of the Administered Dose
- Cumulative Renal Excretion of Progesterone ([4]; Softigen 701, 5. day): 67.4 % of the Administered Dose
- Cumulative Renal Excretion of Progesterone ([4]; Softigen 701, 6. day): 67.6 % of the Administered Dose
- Cumulative Renal Excretion of Progesterone ([4]; Softigen 701, 7. day): 67.7 % of the Administered Dose
- Cumulative Renal Excretion of Progesterone ([4]; Tegin 0, 1. day): 37.9 % of the Administered Dose
- Cumulative Renal Excretion of Progesterone ([4]; Tegin 0, 2. day): 48.7 % of the Administered Dose
- Cumulative Renal Excretion of Progesterone ([4]; Tegin 0, 3. day): 51.6 % of the Administered Dose
- Cumulative Renal Excretion of Progesterone ([4]; Tegin 0, 4. day): 52.3 % of the Administered Dose
- Cumulative Renal Excretion of Progesterone ([4]; Tegin 0, 5. day): 52.6 % of the Administered Dose
- Cumulative Renal Excretion of Progesterone ([4]; Tegin 0, 6. day): 52.8 % of the Administered Dose
- Cumulative Renal Excretion of Progesterone ([4]; Tegin 0, 7. day): 52.9 % of the Administered Dose
- Cumulative Renal Excretion of Progesterone ([4]; Tegomuls X10, 1. day): 42.5 % of the Administered Dose
- Cumulative Renal Excretion of Progesterone ([4]; Tegomuls X10, 2. day): 58.3 % of the Administered Dose
- Cumulative Renal Excretion of Progesterone ([4]; Tegomuls X10, 3. day): 69.2 % of the Administered Dose
- Cumulative Renal Excretion of Progesterone ([4]; Tegomuls X10, 4. day): 75.2 % of the Administered Dose
- Cumulative Renal Excretion of Progesterone ([4]; Tegomuls X10, 5. day): 78.8 % of the Administered Dose
- Cumulative Renal Excretion of Progesterone ([4]; Tegomuls X10, 6. day): 80.6 % of the Administered Dose
- Cumulative Renal Excretion of Progesterone ([4]; Tegomuls X10, 7. day): 81.9 % of the Administered Dose
- Cumulative Renal Excretion of Progesterone ([4]; Tegomuls X17, 1. day): 43.7 % of the Administered Dose
- Cumulative Renal Excretion of Progesterone ([4]; Tegomuls X17, 2. day): 55.0 % of the Administered Dose
- Cumulative Renal Excretion of Progesterone ([4]; Tegomuls X17, 3. day): 62.0 % of the Administered Dose
- Cumulative Renal Excretion of Progesterone ([4]; Tegomuls X17, 4. day): 66.6 % of the Administered Dose
- Cumulative Renal Excretion of Progesterone ([4]; Tegomuls X17, 5. day): 70.0 % of the Administered Dose
- Cumulative Renal Excretion of Progesterone ([4]; Tegomuls X17, 6. day): 71.9 % of the Administered Dose
- Cumulative Renal Excretion of Progesterone ([4]; Tegomuls X17, 7. day): 73.9 % of the Administered Dose
- Cumulative Renal Excretion of Progesterone ([4]; Tylose, 1. day): 29.7 % of the Administered Dose
- Cumulative Renal Excretion of Progesterone ([4]; Tylose, 2. day): 39.1 % of the Administered Dose
- Cumulative Renal Excretion of Progesterone ([4]; Tylose, 3. day): 43.0 % of the Administered Dose
- Cumulative Renal Excretion of Progesterone ([4]; Tylose, 4. day): 44.0 % of the Administered Dose
- Cumulative Renal Excretion of Progesterone ([4]; Tylose, 5. day): 44.5 % of the Administered Dose
- Cumulative Renal Excretion of Progesterone ([4]; Tylose, 6. day): 46.2 % of the Administered Dose
- Cumulative Renal Excretion of Progesterone ([4]; Tylose, 7. day): 46.4 % of the Administered Dose

Structure (SMILES): C[C@@H]1O[C@@H](O[C@@H]2C=C3CC[C@@H]4[C@H](CC[C@]5(C)[C@@H](c6ccc(=O)oc6)CC[C@]45O)[C@@]3(C)CC2)[C@H](O)[C@H](O)[C@H]1O [proscillaridin A]
- LD50 [3, 5]: 7.77 mg/kg
- LD50 [3, 6]: 6.81 mg/kg
- LD50 [3, 7]: 12.3 mg/kg
